{"source": "PubChem BioAssay AID1963977", "about": "(Molecular Pharmacology Branch, DTP, NCI, 2024);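 also: spheroids exposed to agents for seven days before luminescence read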;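 as to viability, T/C: luminescent signal used as a stand-in for spheroid viability; percent viability relative to DMSO vehicle control wells taken as 100%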", "tested_on": "624824-186-R-J3-PDC multicell spheroids, viability", "assay": "Anticancer human tumor 624824-186-R-J3-PDC patient-derived colon adenocarcinoma cell line growth inhibition [PI3K]", "conditions": "for IC50: curve of first compound; for viability, T/C: stronger effect = lower value", "method_in_brief": "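Complex 3D spheroids (cancer cells + endothelial HUVEC + mesenchymal stem cells); drug pairs of targeted agent x inavolisib/alpelisib/duvelisib/copanlisib; half-log series from ~Cmax, max 10 microM if Cmax unknown; endpoint viability.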", "key": {"[1]": {"conditions": "second compound 0.0316 µM, first compound 0.0316 µM"}, "[2]": {"conditions": "second compound 0.0316 µM, first compound 0.1 µM"}, "[3]": {"conditions": "second compound 0.0316 µM, first compound 0.316 µM"}, "[4]": {"conditions": "second compound 0.0316 µM, first compound 1 µM"}, "[5]": {"conditions": "second compound 0.0316 µM, first compound 3.16 µM"}, "[6]": {"conditions": "second compound 0.0316 µM, first compound 10 µM"}, "[7]": {"conditions": "second compound 0.1 µM, first compound 0.0316 µM"}, "[8]": {"conditions": "second compound 0.1 µM, first compound 0.1 µM"}, "[9]": {"conditions": "second compound 0.1 µM, first compound 0.316 µM"}, "[10]": {"conditions": "second compound 0.1 µM, first compound 1 µM"}, "[11]": {"conditions": "second compound 0.1 µM, first compound 3.16 µM"}, "[12]": {"conditions": "second compound 0.1 µM, first compound 10 µM"}, "[13]": {"conditions": "second compound 0.316 µM, first compound 0.0316 µM"}, "[14]": {"conditions": "second compound 0.316 µM, first compound 0.1 µM"}, "[15]": {"conditions": "second compound 0.316 µM, first compound 0.316 µM"}, "[16]": {"conditions": "second compound 0.316 µM, first compound 1 µM"}, "[17]": {"conditions": "second compound 0.316 µM, first compound 3.16 µM"}, "[18]": {"conditions": "second compound 0.316 µM, first compound 10 µM"}, "[19]": {"conditions": "second compound 1 µM, first compound 0.0316 µM"}, "[20]": {"conditions": "second compound 1 µM, first compound 0.1 µM"}, "[21]": {"conditions": "second compound 1 µM, first compound 0.316 µM"}, "[22]": {"conditions": "second compound 1 µM, first compound 1 µM"}, "[23]": {"conditions": "second compound 1 µM, first compound 3.16 µM"}, "[24]": {"conditions": "second compound 1 µM, first compound 10 µM"}, "[25]": {"conditions": "second compound 3.16 µM, first compound 0.0316 µM"}, "[26]": {"conditions": "second compound 3.16 µM, first compound 0.1 µM"}, "[27]": {"conditions": "second compound 3.16 µM, first compound 0.316 µM"}, "[28]": {"conditions": "second compound 3.16 µM, first compound 1 µM"}, "[29]": {"conditions": "second compound 3.16 µM, first compound 3.16 µM"}, "[30]": {"conditions": "second compound 3.16 µM, first compound 10 µM"}, "[31]": {"conditions": "second compound 10 µM, first compound 0.0316 µM"}, "[32]": {"conditions": "second compound 10 µM, first compound 0.1 µM"}, "[33]": {"conditions": "second compound 10 µM, first compound 0.316 µM"}, "[34]": {"conditions": "second compound 10 µM, first compound 1 µM"}, "[35]": {"conditions": "second compound 10 µM, first compound 3.16 µM"}, "[36]": {"conditions": "second compound 10 µM, first compound 10 µM"}}}
{"smiles": "CNC(=O)c1ccc(N2C(=S)N(c3ccc(C#N)c(C(F)(F)F)c3)C(=O)C2(C)C)cc1F", "note": "+ Cc1nc(NC(=O)N2CCCC2C(N)=O)sc1-c1ccnc(C(C)(C)C(F)(F)F)c1", "values": [{"measurement": "IC50", "setting": "second compound 0.0316 µM", "value": "> 10", "unit": "µM"}, {"measurement": "IC50", "setting": "second compound 0.1 µM", "value": "> 10", "unit": "µM"}, {"measurement": "IC50", "setting": "second compound 0.316 µM", "value": "> 10", "unit": "µM"}, {"measurement": "IC50", "setting": "second compound 1 µM", "value": "> 10", "unit": "µM"}, {"measurement": "IC50", "setting": "second compound 3.16 µM", "value": "> 10", "unit": "µM"}, {"measurement": "IC50", "setting": "second compound 10 µM", "value": "> 10", "unit": "µM"}, {"measurement": "viability, T/C", "setting": "[1]", "value": 104, "unit": "%"}, {"measurement": "viability, T/C", "setting": "[2]", "value": 94.4, "unit": "%"}, {"measurement": "viability, T/C", "setting": "[3]", "value": 101, "unit": "%"}, {"measurement": "viability, T/C", "setting": "[4]", "value": 102, "unit": "%"}, {"measurement": "viability, T/C", "setting": "[5]", "value": 107, "unit": "%"}, {"measurement": "viability, T/C", "setting": "[6]", "value": 113, "unit": "%"}, {"measurement": "viability, T/C", "setting": "[7]", "value": 96.9, "unit": "%"}, {"measurement": "viability, T/C", "setting": "[8]", "value": 100, "unit": "%"}, {"measurement": "viability, T/C", "setting": "[9]", "value": 109, "unit": "%"}, {"measurement": "viability, T/C", "setting": "[10]", "value": 98.4, "unit": "%"}, {"measurement": "viability, T/C", "setting": "[11]", "value": 104, "unit": "%"}, {"measurement": "viability, T/C", "setting": "[12]", "value": 104, "unit": "%"}, {"measurement": "viability, T/C", "setting": "[13]", "value": 107, "unit": "%"}, {"measurement": "viability, T/C", "setting": "[14]", "value": 101, "unit": "%"}, {"measurement": "viability, T/C", "setting": "[15]", "value": 117, "unit": "%"}, {"measurement": "viability, T/C", "setting": "[16]", "value": 99.1, "unit": "%"}, {"measurement": "viability, T/C", "setting": "[17]", "value": 113, "unit": "%"}, {"measurement": "viability, T/C", "setting": "[18]", "value": 93, "unit": "%"}, {"measurement": "viability, T/C", "setting": "[19]", "value": 100, "unit": "%"}, {"measurement": "viability, T/C", "setting": "[20]", "value": 96.3, "unit": "%"}, {"measurement": "viability, T/C", "setting": "[21]", "value": 105, "unit": "%"}, {"measurement": "viability, T/C", "setting": "[22]", "value": 101, "unit": "%"}, {"measurement": "viability, T/C", "setting": "[23]", "value": 104, "unit": "%"}, {"measurement": "viability, T/C", "setting": "[24]", "value": 95, "unit": "%"}, {"measurement": "viability, T/C", "setting": "[25]", "value": 91.1, "unit": "%"}, {"measurement": "viability, T/C", "setting": "[26]", "value": 89.4, "unit": "%"}, {"measurement": "viability, T/C", "setting": "[27]", "value": 83.9, "unit": "%"}, {"measurement": "viability, T/C", "setting": "[28]", "value": 77.7, "unit": "%"}, {"measurement": "viability, T/C", "setting": "[29]", "value": 88, "unit": "%"}, {"measurement": "viability, T/C", "setting": "[30]", "value": 85.5, "unit": "%"}, {"measurement": "viability, T/C", "setting": "[31]", "value": 74.3, "unit": "%"}, {"measurement": "viability, T/C", "setting": "[32]", "value": 65.3, "unit": "%"}, {"measurement": "viability, T/C", "setting": "[33]", "value": 69.4, "unit": "%"}, {"measurement": "viability, T/C", "setting": "[34]", "value": 67.8, "unit": "%"}, {"measurement": "viability, T/C", "setting": "[35]", "value": 73.8, "unit": "%"}, {"measurement": "viability, T/C", "setting": "[36]", "value": 70.1, "unit": "%"}]}
{"smiles": "CC1(C)CCC(CN2CCN(c3ccc(C(=O)NS(=O)(=O)c4ccc(NCC5CCOCC5)c([N+](=O)[O-])c4)c(Oc4cnc5[nH]ccc5c4)c3)CC2)=C(c2ccc(Cl)cc2)C1", "note": "+ CC(Nc1ncnc2nc[nH]c12)c1cc2cccc(Cl)c2c(=O)n1-c1ccccc1", "values": [{"measurement": "IC50", "setting": "second compound 0.0316 µM", "value": 7.77, "unit": "µM"}, {"measurement": "IC50", "setting": "second compound 0.1 µM", "value": 7.33, "unit": "µM"}, {"measurement": "IC50", "setting": "second compound 0.316 µM", "value": 8.72, "unit": "µM"}, {"measurement": "IC50", "setting": "second compound 1 µM", "value": 7.87, "unit": "µM"}, {"measurement": "IC50", "setting": "second compound 3.16 µM", "value": 8.48, "unit": "µM"}, {"measurement": "IC50", "setting": "second compound 10 µM", "value": 9, "unit": "µM"}, {"measurement": "viability, T/C", "setting": "[1]", "value": 112, "unit": "%"}, {"measurement": "viability, T/C", "setting": "[2]", "value": 94.8, "unit": "%"}, {"measurement": "viability, T/C", "setting": "[3]", "value": 116, "unit": "%"}, {"measurement": "viability, T/C", "setting": "[4]", "value": 96.7, "unit": "%"}, {"measurement": "viability, T/C", "setting": "[5]", "value": 106, "unit": "%"}, {"measurement": "viability, T/C", "setting": "[6]", "value": 34.5, "unit": "%"}, {"measurement": "viability, T/C", "setting": "[7]", "value": 103, "unit": "%"}, {"measurement": "viability, T/C", "setting": "[8]", "value": 92.4, "unit": "%"}, {"measurement": "viability, T/C", "setting": "[9]", "value": 91.4, "unit": "%"}, {"measurement": "viability, T/C", "setting": "[10]", "value": 90.1, "unit": "%"}, {"measurement": "viability, T/C", "setting": "[11]", "value": 111, "unit": "%"}, {"measurement": "viability, T/C", "setting": "[12]", "value": 32.5, "unit": "%"}, {"measurement": "viability, T/C", "setting": "[13]", "value": 110, "unit": "%"}, {"measurement": "viability, T/C", "setting": "[14]", "value": 114, "unit": "%"}, {"measurement": "viability, T/C", "setting": "[15]", "value": 108, "unit": "%"}, {"measurement": "viability, T/C", "setting": "[16]", "value": 106, "unit": "%"}, {"measurement": "viability, T/C", "setting": "[17]", "value": 117, "unit": "%"}, {"measurement": "viability, T/C", "setting": "[18]", "value": 41.6, "unit": "%"}, {"measurement": "viability, T/C", "setting": "[19]", "value": 97.9, "unit": "%"}, {"measurement": "viability, T/C", "setting": "[20]", "value": 111, "unit": "%"}, {"measurement": "viability, T/C", "setting": "[21]", "value": 112, "unit": "%"}, {"measurement": "viability, T/C", "setting": "[22]", "value": 99.2, "unit": "%"}, {"measurement": "viability, T/C", "setting": "[23]", "value": 117, "unit": "%"}, {"measurement": "viability, T/C", "setting": "[24]", "value": 35, "unit": "%"}, {"measurement": "viability, T/C", "setting": "[25]", "value": 109, "unit": "%"}, {"measurement": "viability, T/C", "setting": "[26]", "value": 97.2, "unit": "%"}, {"measurement": "viability, T/C", "setting": "[27]", "value": 102, "unit": "%"}, {"measurement": "viability, T/C", "setting": "[28]", "value": 111, "unit": "%"}, {"measurement": "viability, T/C", "setting": "[29]", "value": 125, "unit": "%"}, {"measurement": "viability, T/C", "setting": "[30]", "value": 40.1, "unit": "%"}, {"measurement": "viability, T/C", "setting": "[31]", "value": 88.6, "unit": "%"}, {"measurement": "viability, T/C", "setting": "[32]", "value": 95.3, "unit": "%"}, {"measurement": "viability, T/C", "setting": "[33]", "value": 94.6, "unit": "%"}, {"measurement": "viability, T/C", "setting": "[34]", "value": 93.8, "unit": "%"}, {"measurement": "viability, T/C", "setting": "[35]", "value": 108, "unit": "%"}, {"measurement": "viability, T/C", "setting": "[36]", "value": 45.3, "unit": "%"}]}
